We go through two molecules from patent publication US11884710B2, “Peptide compounds and methods of use in wound healing” (priority 2013, dated 2024).

For assay [1], the system named is cytokines in corneal lysates. The assay can be described thus: Corneal cytokines after intrastromal injection (MILLIPLEX MAP mouse cytokine assay). The class given is in vivo. The settings on record: intrastromal 0.5 μl, 10^−4, 10^−5, 10^−6 M; 24 and 48 hours. Here is the method: Corneas were injected intrastromally with 0.5 μl of peptide 95-122 at a final concentration of 10^−4 M, 10^−5 M, and 10^−6 M and vehicle (saline) control. Corneas were collected and flash frozen at 24 hours and 48 hours. Corneal lysates were analyzed for cytokines using the MILLIPLEX® MAP mouse cytokine assay for IL-7(A), IL-15 (B), IFN-γ (C), MIP1-α (D) (EMD Millipore Corp., Billerica, Mass.). The means of independent experimental values are shown±SEM. ***P<0.001, **P<0.01, *P<0.05 by unpaired t-test as compared to vehicle treated controls. […] Corneas were injected intrastromally with 0.5 μl of peptide 95-122 at a final concentration of 10^−4 M, 10^−5 M, and 10^−6 M and vehicle (saline) control. Corneas were collected and flash frozen at 24 hours and 48 hours. Corneal lysates were analyzed for cytokines using the MILLIPLEX® MAP mouse cytokine assay for MIP1-β (EMD Millipore Corp., Billerica, Mass.). **P<0.01, *P<0.05 by unpaired t-test as compared to vehicle treated controls. […] Corneas were injected intrastromally with 0.5 μl of peptide 95-122 at a final concentration of 10^−4 M, 10^−5 M, and 10^−6 M and vehicle (saline) control. Corneas were collected and flash frozen at 24 hours and 48 hours. Corneal lysates were analyzed for cytokines using the MILLIPLEX® MAP mouse cytokine assay for KC (A), IL-1β (B), and GM-CSF (C) (EMD Millipore Corp., Billerica, Mass.). **P<0.01, *P<0.05 by unpaired t-test as compared to vehicle treated controls.

For assay [2], the system named is PKCδ. The assay can be described thus: Immunofluorescence for PKCδ in HCEC monolayers. Type of assay: cell-based, human. The settings on record: CAP37 250 and 500 ng/ml; 15 minutes; scratched and non-scratched monolayers. As to the method: HCEC monolayers were grown to confluency and were scratched with a 10 μl pipette tip or left unscratched, and then the monolayers were treated for 15 minutes with (A-B) buffer, (C-D) PMA (1 μM), (E-F) 250 ng/ml CAP37, and (G-J) 500 ng/ml CAP37. Cells were stained for PKCδ (250 ng/ml; (A-H)), and PKCα (1 μg/ml; (I-J)) and detected using immunofluorescence (4 μg/ml, ALEXA FLUOR® 488 dye (Life Technologies Corp., Grand Island, N.Y.)). […] Scratched monolayers that were treated for 18 hours with CAP37 (250 ng/ml; (L)) or left untreated (K) were stained for PKCδ. […] Scale bars, 20 μm.
Immunofluorescence: HCECs and primary HCECs were cultured on Lab-Tek® II glass chamber slides (Nunc, Rochester, N.Y.) and starved overnight in basal media. For wounding studies, monolayers were scratched with a 10 μl pipette tip or left unscratched and treated with 1 μM phorbol 12-myristate 13-acetate (PMA, Sigma-Aldrich), rCAP37 (25-500 ng/ml), or basal KSFM (Gibco) for 15 minutes. After treatment, the cells were fixed in 4% (v/v) formaldehyde solution (Thermo, Rockford, Ill.) in PBS (Gibco) for 20 minutes at room temperature followed by permeabilization in 0.5% TRITON™-X 100 (Mallinckrodt, St. Louis, Mo.) in PBS for 10 minutes. Remaining formaldehyde was quenched with 0.05 M ammonium chloride (NH4Cl, Sigma-Aldrich, St. Louis, Mo.) in PBS for 10 minutes. […]

In assay [3] the test system is PKCδ. Nature of the assay: Immunohistochemistry for PKCδ in corneal wounds in vivo. Details: species or system mouse. The settings on record: rCAP37 250 ng/ml; sections at 6 hours. Here is the method: Mice corneas were wounded using the AlgerBrush II and treated at 0 and 16 hours with vehicle (normal saline; (A-C)) or rCAP37 (250 ng/ml; (D-F)). Whole eye globes were enucleated at 6 hours (A, B, D, E), 16 hours (C, F), and 48 hours (H) post-wounding, and sections were stained for PKCδ. Representative images show constitutive staining for PKCδ in unwounded corneas (G). […] Pronounced staining for PKCδ was seen along the leading wound edge (↓) in CAP37-treated corneas at 6 hours (D, E) and 16 hours (F). […] Scale bars, 100 μm.
Immunohistochemistry: Whole mouse eyes were collected, fixed, embedded, and cut as previously described. Antigen retrieval was performed by treating sections with Rodent Decloaker (BioCare Medical, Concord, Calif.) and steaming them for 20 minutes before cooling with deionized water for 20 minutes. Sections were blocked for 30 minutes in Rodent Blocker M (BioCare Medical, Concord, Calif.), washed three times for 5 minutes per wash in deionized water, and blocked in peroxide block (Cell Marque, Rocklin, Calif.) for 10 minutes. Sections were then washed three times for 5 minutes in deionized water and incubated overnight at 4° C. with rabbit anti-PKCδ (4 μg/ml; Santa Cruz Biotechnology, Inc. Santa Cruz, Calif.). Sections incubated with rabbit IgG (Cell Signaling Technology, Danvers, Mass.) overnight at 4° C. served as controls for nonspecific staining. […]

Turning to “LDREANLTSSVTILPLPLQNATVEAGTR (listed as Homo sapiens) [Peptide 95-122]”, in assay [1], the “GM-CSF in corneal lysates” value is reported as “significantly increases”, the “IFN-γ in corneal lysates” value is listed as “significantly increases”, the “IL-7 in corneal lysates” value is “significantly increases” and the “IL-10 in corneal lysates” value is “significantly increases”. Besides, in assay [1], the “IL-15 in corneal lysates” value was “significantly increases”, the “KC in corneal lysates” value was “significantly increases”, the “MIP1-α in corneal lysates” value is reported as “significantly increases” and the “MIP1-β in corneal lysates” value is given as “significantly increases”.

B1: CAP37: cationic antimicrobial protein of Mr 37 kDa; recombinant CAP37 produced in human embryonic kidney (HEK) 293 cells (protein)
chain: IVGGRKARPRQFPFLASIQNQGRHFCGGALIHARFVMTAASCFQSQNPGVSTVVLGAYDLRRRERQSRQTFSISSMSENGYDPQQNLNDLMLLQLDREANLTSSVTILPLPLQNATVEAGTRCQVAGWGSQRSGGRLSRFPRFVNVTVTPEDQCRPNNVCTGVLTRRGGICNGDGGTPLVCEGLAHGVASFSLGPCGRGPDFFTRVALFRDWIDGVLNNPGP
With B1, the “PKCδ staining, in words” value in the assay with PKCδ [2] is given as “dose-dependent increase in PKCδ staining”. In the assay with PKCδ [3], the “PKCδ staining of corneal sections, in words” value is reported as “strong staining for PKCδ”.
